Usually AC50 stands for the midpoint of the concentration-response curve, whichever way the signal moves.

This passage reports AC50 results from ChEMBL document CHEMBL5291721, “A preclinical secondary pharmacology resource illuminates target-adverse drug reaction associations of marketed drugs” (Nat Commun, 2023).

Molecules are shown by their SMILES.

One test has as its target T1, Estrogen receptor (Homo sapiens, UniProt P03372).
T1 sequence (P03372 whole entry): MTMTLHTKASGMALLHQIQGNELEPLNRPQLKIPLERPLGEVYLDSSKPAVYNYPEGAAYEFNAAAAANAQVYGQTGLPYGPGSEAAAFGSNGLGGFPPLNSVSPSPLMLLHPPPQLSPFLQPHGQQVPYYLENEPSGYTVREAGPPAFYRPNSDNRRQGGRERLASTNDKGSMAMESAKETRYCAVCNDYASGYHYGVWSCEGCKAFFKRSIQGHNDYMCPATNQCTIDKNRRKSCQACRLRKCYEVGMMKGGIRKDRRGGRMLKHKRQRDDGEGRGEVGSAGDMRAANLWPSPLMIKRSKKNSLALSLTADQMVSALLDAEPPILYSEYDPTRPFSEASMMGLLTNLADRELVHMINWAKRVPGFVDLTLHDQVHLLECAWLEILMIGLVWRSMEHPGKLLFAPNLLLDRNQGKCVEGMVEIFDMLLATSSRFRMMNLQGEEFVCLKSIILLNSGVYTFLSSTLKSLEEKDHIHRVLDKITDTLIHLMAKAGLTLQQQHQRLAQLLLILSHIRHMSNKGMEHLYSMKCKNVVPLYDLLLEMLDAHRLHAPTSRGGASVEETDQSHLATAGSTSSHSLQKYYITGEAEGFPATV

In test [1] the target is Sodium-dependent noradrenaline transporter (Homo sapiens, UniProt P23975).
Sequence of Sodium-dependent noradrenaline transporter (P23975 whole entry): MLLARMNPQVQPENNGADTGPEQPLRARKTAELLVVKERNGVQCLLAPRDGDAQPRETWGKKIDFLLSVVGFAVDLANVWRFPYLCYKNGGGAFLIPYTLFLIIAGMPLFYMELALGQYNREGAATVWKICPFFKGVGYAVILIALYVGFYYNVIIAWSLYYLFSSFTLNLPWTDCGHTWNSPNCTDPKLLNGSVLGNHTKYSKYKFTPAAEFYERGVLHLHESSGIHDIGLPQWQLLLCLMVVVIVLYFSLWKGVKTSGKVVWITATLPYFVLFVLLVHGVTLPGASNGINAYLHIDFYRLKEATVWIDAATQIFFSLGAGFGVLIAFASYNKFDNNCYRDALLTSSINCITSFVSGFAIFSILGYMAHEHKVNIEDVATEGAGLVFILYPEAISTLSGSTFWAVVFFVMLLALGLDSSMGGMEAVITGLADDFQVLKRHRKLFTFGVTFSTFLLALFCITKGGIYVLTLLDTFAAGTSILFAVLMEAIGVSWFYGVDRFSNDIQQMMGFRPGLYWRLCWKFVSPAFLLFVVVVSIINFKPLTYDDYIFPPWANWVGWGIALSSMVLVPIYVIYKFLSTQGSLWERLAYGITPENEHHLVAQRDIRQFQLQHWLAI
The target in test [2] is Vascular endothelial growth factor receptor 2 (Homo sapiens, UniProt P35968). It is filed as functional.
Sequence of Vascular endothelial growth factor receptor 2 (P35968 whole entry): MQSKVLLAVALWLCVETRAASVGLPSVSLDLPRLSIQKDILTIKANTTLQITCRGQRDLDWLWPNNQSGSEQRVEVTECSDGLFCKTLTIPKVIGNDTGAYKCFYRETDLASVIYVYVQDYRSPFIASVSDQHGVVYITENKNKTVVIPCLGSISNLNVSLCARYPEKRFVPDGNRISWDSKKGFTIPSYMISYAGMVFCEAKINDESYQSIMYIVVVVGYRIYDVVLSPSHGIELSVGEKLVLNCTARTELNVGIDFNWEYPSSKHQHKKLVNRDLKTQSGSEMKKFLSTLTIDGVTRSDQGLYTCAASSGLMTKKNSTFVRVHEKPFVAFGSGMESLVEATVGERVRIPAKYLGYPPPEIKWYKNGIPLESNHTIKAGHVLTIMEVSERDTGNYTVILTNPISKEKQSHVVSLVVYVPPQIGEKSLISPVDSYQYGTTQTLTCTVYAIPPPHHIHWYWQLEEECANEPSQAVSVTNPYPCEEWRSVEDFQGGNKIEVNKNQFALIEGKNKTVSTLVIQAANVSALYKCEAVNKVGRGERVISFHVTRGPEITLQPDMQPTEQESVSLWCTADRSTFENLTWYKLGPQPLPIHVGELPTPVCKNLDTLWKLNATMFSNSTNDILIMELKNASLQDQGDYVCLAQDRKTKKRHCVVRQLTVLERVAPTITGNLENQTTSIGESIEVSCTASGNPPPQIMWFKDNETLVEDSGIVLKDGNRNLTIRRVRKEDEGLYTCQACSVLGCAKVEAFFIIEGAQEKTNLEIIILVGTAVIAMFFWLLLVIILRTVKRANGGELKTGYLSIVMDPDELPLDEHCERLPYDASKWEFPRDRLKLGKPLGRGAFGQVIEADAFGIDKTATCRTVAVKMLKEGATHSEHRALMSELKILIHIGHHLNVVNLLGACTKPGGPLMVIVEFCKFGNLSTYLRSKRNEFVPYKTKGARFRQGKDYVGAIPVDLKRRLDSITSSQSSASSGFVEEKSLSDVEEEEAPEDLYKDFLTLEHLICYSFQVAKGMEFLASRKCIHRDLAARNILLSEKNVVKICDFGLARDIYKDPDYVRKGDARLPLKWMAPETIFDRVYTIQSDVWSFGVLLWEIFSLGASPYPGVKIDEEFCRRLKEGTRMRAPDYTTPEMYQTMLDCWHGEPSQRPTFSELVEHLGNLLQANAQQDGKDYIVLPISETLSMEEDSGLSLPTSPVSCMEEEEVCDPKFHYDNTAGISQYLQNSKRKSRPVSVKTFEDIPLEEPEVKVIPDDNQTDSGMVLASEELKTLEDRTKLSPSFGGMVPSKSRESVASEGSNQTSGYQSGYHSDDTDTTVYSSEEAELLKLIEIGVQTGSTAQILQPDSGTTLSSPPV
The next test addresses T2, Adenosine receptor A3 (Homo sapiens, UniProt P0DMS8).
T2 sequence (P0DMS8 whole entry): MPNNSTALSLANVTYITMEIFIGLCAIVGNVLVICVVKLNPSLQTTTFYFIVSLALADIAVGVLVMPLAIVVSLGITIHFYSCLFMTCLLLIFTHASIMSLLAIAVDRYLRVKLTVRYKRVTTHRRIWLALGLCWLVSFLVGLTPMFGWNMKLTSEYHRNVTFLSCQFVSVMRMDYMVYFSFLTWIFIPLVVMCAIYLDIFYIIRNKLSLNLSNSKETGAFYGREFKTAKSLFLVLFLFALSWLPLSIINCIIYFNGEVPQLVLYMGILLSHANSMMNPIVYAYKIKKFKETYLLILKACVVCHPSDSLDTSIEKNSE

The target in a further test is Prothrombin (Homo sapiens, UniProt P00734). It is filed as functional.
For test [3], the target named is T3, 5-hydroxytryptamine receptor 1A (Homo sapiens, UniProt P08908).
T3 sequence (P08908 whole entry): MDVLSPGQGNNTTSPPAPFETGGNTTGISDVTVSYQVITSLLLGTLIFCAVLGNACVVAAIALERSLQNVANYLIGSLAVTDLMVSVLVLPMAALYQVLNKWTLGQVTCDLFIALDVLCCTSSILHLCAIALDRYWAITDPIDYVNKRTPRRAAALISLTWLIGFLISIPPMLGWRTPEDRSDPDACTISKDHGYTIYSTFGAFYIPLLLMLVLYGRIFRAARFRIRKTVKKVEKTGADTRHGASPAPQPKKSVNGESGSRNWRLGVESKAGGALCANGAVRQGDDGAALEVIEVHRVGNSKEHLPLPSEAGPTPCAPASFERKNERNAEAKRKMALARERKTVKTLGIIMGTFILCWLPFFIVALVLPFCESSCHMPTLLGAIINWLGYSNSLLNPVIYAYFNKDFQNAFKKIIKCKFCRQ

In another test the target is T4, Thromboxane A2 receptor (Homo sapiens, UniProt P21731).
T4 sequence (P21731 whole entry): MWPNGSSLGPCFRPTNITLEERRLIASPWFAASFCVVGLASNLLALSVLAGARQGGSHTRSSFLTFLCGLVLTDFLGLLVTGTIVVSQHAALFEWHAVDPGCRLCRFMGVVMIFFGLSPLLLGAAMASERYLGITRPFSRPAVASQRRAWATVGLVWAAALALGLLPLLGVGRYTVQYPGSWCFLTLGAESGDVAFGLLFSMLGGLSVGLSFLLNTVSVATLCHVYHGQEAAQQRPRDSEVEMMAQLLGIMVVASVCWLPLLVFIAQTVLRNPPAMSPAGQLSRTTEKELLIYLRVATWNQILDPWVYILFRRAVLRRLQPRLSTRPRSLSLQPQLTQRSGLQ

Test [4] addresses T5, Alpha-1A adrenergic receptor (Homo sapiens, UniProt P35348).
T5 sequence (P35348 whole entry): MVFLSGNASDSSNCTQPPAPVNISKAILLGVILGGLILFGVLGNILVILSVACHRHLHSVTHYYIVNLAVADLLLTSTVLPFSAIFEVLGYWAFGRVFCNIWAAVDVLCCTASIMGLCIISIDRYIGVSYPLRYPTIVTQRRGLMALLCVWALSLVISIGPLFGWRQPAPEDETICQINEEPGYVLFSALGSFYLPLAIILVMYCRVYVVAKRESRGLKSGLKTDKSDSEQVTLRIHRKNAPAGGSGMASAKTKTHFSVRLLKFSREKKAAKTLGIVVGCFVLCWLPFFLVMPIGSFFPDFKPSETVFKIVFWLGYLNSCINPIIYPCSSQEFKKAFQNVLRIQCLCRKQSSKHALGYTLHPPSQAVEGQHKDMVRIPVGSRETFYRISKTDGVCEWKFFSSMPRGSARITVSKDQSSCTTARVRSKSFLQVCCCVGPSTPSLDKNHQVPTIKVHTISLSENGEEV

Test [5] concerns the target T6, Mu-type opioid receptor (Homo sapiens, UniProt P35372).
Test [6] deals with T6, Mu-type opioid receptor. Put plainly: biochemical. The format is functional.
The target of test [7] is T7, Neuropeptide Y receptor type 1 (Homo sapiens, UniProt P25929).
T7 sequence (P25929 whole entry): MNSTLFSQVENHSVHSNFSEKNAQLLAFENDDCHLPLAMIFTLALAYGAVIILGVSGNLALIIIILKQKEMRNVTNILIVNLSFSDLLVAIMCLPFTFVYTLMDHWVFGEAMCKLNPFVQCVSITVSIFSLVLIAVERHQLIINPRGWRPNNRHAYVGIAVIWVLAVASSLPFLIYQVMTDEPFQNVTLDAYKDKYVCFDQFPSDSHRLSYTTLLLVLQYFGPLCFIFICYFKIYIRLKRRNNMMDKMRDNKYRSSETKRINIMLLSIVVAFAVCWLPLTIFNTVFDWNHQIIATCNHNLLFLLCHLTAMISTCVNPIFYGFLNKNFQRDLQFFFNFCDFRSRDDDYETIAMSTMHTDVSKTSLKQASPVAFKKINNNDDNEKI

Test [8] has as its target Voltage-dependent L-type calcium channel subunit alpha-1C (Rattus norvegicus, UniProt P22002). The format is functional.
Further: assay procedure not described here.

T6 sequence (P35372 whole entry): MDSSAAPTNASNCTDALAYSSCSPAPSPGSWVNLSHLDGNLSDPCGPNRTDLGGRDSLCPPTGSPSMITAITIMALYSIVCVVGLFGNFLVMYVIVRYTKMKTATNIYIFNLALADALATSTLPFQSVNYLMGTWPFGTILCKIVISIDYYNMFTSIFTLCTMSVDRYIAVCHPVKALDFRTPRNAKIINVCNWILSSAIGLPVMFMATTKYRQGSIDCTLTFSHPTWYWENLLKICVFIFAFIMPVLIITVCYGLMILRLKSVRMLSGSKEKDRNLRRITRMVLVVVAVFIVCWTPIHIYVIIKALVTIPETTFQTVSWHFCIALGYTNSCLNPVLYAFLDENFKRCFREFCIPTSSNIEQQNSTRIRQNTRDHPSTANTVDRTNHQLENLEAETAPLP
Sequence of Voltage-dependent L-type calcium channel subunit alpha-1C (P22002 whole entry): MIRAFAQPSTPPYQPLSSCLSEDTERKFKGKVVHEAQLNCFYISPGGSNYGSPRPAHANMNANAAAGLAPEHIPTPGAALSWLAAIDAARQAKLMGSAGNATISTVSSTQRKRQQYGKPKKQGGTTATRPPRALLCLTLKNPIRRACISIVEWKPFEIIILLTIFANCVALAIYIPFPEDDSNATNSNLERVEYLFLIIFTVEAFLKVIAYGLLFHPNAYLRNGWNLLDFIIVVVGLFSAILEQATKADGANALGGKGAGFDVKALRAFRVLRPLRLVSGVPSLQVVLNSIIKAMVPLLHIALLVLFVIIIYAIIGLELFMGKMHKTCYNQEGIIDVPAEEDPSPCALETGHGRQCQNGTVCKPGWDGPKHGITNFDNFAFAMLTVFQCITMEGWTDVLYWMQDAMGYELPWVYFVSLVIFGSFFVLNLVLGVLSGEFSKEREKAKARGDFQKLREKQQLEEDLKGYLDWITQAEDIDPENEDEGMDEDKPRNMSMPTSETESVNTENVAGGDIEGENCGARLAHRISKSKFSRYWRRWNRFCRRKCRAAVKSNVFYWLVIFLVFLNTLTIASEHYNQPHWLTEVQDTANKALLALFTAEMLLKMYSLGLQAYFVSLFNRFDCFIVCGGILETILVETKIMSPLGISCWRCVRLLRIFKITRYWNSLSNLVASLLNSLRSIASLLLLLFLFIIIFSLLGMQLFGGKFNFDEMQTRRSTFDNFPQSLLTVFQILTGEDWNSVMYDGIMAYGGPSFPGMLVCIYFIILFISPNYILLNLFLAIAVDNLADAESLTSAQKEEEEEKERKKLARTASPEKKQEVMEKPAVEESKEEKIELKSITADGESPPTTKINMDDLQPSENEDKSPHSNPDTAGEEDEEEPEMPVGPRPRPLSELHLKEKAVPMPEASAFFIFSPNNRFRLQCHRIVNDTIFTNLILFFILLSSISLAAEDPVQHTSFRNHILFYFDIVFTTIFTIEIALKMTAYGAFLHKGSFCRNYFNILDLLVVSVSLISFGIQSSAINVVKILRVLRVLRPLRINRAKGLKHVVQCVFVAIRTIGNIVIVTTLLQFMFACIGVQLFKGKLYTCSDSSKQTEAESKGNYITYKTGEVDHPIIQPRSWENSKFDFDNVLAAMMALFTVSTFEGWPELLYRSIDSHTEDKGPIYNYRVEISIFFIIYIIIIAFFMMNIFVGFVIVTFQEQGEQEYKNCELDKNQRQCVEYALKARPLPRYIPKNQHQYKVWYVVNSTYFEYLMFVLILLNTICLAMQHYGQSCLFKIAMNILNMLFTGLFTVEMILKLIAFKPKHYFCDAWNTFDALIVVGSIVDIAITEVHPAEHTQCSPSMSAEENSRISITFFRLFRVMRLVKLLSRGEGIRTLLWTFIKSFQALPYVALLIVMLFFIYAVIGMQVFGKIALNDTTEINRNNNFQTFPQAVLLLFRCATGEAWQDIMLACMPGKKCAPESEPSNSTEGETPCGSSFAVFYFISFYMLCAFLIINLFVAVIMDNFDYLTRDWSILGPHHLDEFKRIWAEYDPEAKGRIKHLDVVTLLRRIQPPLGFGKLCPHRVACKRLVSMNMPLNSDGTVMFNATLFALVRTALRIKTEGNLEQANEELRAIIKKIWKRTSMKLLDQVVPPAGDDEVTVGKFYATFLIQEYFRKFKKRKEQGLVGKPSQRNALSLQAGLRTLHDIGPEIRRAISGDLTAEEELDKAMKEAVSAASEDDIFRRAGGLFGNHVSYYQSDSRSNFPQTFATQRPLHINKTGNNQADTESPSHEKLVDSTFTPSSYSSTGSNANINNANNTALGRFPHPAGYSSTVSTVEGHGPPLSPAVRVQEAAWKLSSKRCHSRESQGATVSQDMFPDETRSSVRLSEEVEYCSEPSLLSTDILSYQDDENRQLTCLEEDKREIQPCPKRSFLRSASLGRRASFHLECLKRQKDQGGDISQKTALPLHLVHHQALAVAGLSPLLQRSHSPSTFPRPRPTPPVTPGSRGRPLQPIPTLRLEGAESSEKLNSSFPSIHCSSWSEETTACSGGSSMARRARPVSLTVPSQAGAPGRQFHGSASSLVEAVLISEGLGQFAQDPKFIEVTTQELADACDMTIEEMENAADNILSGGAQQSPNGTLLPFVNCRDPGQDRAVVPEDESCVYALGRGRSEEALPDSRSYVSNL

Consider `CC(=O)OC[C@H]1O[C@@H](n2ccc(=O)[nH]c2=O)[C@H](OC(C)=O)[C@@H]1OC(C)=O` [URIDINE TRIACETATE], for which the AC50 (on Estrogen receptor; in test [1]; in test [2]; at Adenosine receptor A3; at Prothrombin; in test [3]) was above 30 µM each time.
As for `CCC(=O)c1c(O)cc(O)cc1O` [FLOPROPIONE], the AC50 (at Estrogen receptor; in [1]; in [2]; on Adenosine receptor A3; at Prothrombin; in test [3]) was above 30 µM each time.
Take `O=C1c2c(O)c(=O)ccn2N([C@@H]2c3ccccc3SCc3c2ccc(F)c3F)[C@@H]2COCCN12` [BALOXAVIR]: the concentration at half-maximal activity (AC50) (on Estrogen receptor; in test [1]; in test [2]; at Adenosine receptor A3; at Prothrombin; in [3]) was above 30 µM throughout.
For `Cc1c(-c2ccccc2)oc2c(C(=O)OCCN3CCCCC3)cccc2c1=O` [FLAVOXATE], the AC50 at Estrogen receptor is above 30 µM; in test [1], 11.3 µM; in [2], above 30 µM; at Adenosine receptor A3, 5.29 µM; on Prothrombin it was above 30 µM; in [3], 3.11 µM.
For `CCOC(=O)N[C@@H]1CC[C@@H]2[C@@H](C1)C[C@H]1C(=O)O[C@H](C)[C@H]1[C@H]2/C=C/c1ccc(-c2cccc(F)c2)cn1` [VORAPAXAR], the AC50 at Estrogen receptor was above 30 µM; in test [1], 4.56 µM; in test [2], above 30 µM; at Adenosine receptor A3 it was 2.43 µM; at Prothrombin it was above 30 µM; in test [3], above 30 µM.
With `CC(=O)Oc1c(C)cc(OCC(O)CNC(C)C)c(C)c1C` (configuration not stated) [METIPRANOLOL], the concentration at half-maximal activity (AC50) (on Estrogen receptor; in test [1]; in test [2]; on Adenosine receptor A3; at Prothrombin; in test [3]) was above 30 µM each time.
Turning to `O=C1CC[C@@]2(O)[C@H]3Cc4ccc(O)c5c4[C@@]2(CCN3CC2CC2)[C@H]1O5` [NALTREXONE], the AC50 (in [1]; in test [2]; at Adenosine receptor A3; on Prothrombin; in [3]) was above 30 µM in each case.
As to `O=C1[C@H](CC[C@H](O)c2ccc(F)cc2)[C@@H](c2ccc(O)cc2)N1c1ccc(F)cc1` [EZETIMIBE], the AC50 at Estrogen receptor was above 30 µM; in [1], 24 µM; in test [2], above 30 µM; at Adenosine receptor A3 it was 6.34 µM; on Prothrombin, above 30 µM; in test [3], above 30 µM.
As to `CCO/N=C(\C(=O)N[C@@H]1C(=O)N2C(C(=O)[O-])=C(Sc3nc(-c4cc[n+](C)cc4)cs3)CS[C@H]12)c1nsc(N)n1` [CEFTAROLINE], the concentration at half-maximal activity (AC50) (at Estrogen receptor; in test [1]; in test [2]; on Adenosine receptor A3; at Prothrombin; in [3]) was above 30 µM each time.
Consider `C[N+](C)(C)CCCCCCCCCC[N+](C)(C)C` [DECAMETHONIUM], for which the half-maximal activity concentration (AC50) (at Estrogen receptor; in test [1]; in test [2]; on Adenosine receptor A3; on Prothrombin; in test [3]) was above 30 µM throughout.
With `CC(O)CO` (configuration not stated) [PROPYLENE GLYCOL], the concentration at half-maximal activity (AC50) (at Estrogen receptor; in test [1]; in test [2]; at Adenosine receptor A3; at Prothrombin; in test [3]) was above 30 µM throughout.
As for `O=C1c2ccccc2C(=O)C1C(=O)C(c1ccccc1)c1ccccc1` [DIPHENADIONE], the half-maximal activity concentration (AC50) in test [1] is above 30 µM; in test [2] it was above 30 µM; on Adenosine receptor A3 it was 0.716 µM; on Prothrombin, above 30 µM; in test [3], above 30 µM.
Turning to `CC(C)OC(=O)[C@H](C)N[P@](=O)(OC[C@H]1O[C@@H](n2ccc(=O)[nH]c2=O)[C@](C)(F)[C@@H]1O)Oc1ccccc1` [SOFOSBUVIR], the AC50 (on Estrogen receptor; in [1]; in [2]; at Adenosine receptor A3; at Prothrombin; in test [3]) was above 30 µM throughout.
On to `Cc1cc(O)cc(C)c1Cl` [CHLOROXYLENOL], for which the half-maximal activity concentration (AC50) (in test [1]; in test [2]; on Adenosine receptor A3; at Prothrombin; in test [3]) was above 30 µM in each case.
In the case of `C[C@H]1O[C@H](O[C@H]2[C@H](O)[C@@H](O)[C@@H](O[C@H]3[C@H](O)[C@@H](O)C(O)O[C@@H]3CO)O[C@@H]2CO)[C@H](O)[C@@H](O)[C@@H]1N[C@H]1C=C(CO)[C@@H](O)[C@H](O)[C@H]1O` (some centres not stated) [ACARBOSE], the AC50 on Thromboxane A2 receptor is above 30 µM; in test [4] it was above 10 µM; on Mu-type opioid receptor [5] it was above 10 µM; in test [1], above 30 µM; in test [2] it was above 30 µM; on Mu-type opioid receptor [6], above 30 µM. Besides, the AC50 was above 30 µM on Adenosine receptor A3; above 30 µM in test [7]; above 10 µM in [8]; above 30 µM at Prothrombin; above 30 µM in test [3].
Turning to `CC(N/C(=N\C#N)Nc1ccncc1)C(C)(C)C` (configuration not stated) [PINACIDIL ANHYDROUS], the AC50 (in test [1]; in test [2]; at Adenosine receptor A3; at Prothrombin; in test [3]) was above 30 µM throughout.
